Experimental data from patent US7670785B2, “Polynucleotides and polypeptides associated with the development of rheumatoid arthritis” (Bristol-Myers Squibb Company, priority 2001, dated 2010).

How the values were obtained:
[1] = system: GBP-5; test: GBP-5 mRNA in stimulated mouse fibroblasts, real time PCR; type: cell-based; details: 2 or 8 hours, TNFα 10 ng/ml or PMA 10 ng/ml, FIG. 90B
Procedure: (§1) Wild type 3T3 fibroblasts and immortalized fibroblast lines derived from p65 and IkBα germline knockouts were cultured in DMEM with 10% calf serum, glutamax and penicillin/streptomycin. Primary embryonic fibroblasts derived from germline knockouts of relB and p50 were cultured in DMEM with 10% fetal calf serum, glutamax and penicillin/streptomycin. The fibroblasts were plated at 5×10^5/well of a 6 well plate and cultured overnight at 37° C. in 5% CO2. Cells were stimulated for 2 or 8 hours with either medium, human TNFα (10 ng/ml) or PMA (10 ng/ml). At each time point, cells were harvested using trypsin/EDTA, washed one time with PBS, and stored at −80° C.
(§2) Total RNA was isolated from cells using the RNeasy® Kit from Qiagen (Valencia, Calif.), including the on-the-column DNase digestion procedure. RNA quality and quantity were evaluated using UV spectrometry. Total RNA was used for first-strand cDNA synthesis using the SuperScript™ First-Strand Synthesis System for RT-PCR (Invitrogen, Carlsbad, Calif.) following the manufacturer's instructions with 50 ng of random hexamers.
(§3) Reactions were performed in a total volume of 40 μl. […]
(§4) A relative value for the initial target concentration in each reaction was determined using the TaqMan 5700 software. […]

[2] = system: Fc gamma RI; details: RA patients, monocytes; cited from earlier work
[3] = molecular target: T1, TNF-α (Homo sapiens, UniProt P01375); details: cited from earlier work
T1 construct: host or cells: RA patients (in vivo)
T1 sequence (P01375 77-233 limits assumed): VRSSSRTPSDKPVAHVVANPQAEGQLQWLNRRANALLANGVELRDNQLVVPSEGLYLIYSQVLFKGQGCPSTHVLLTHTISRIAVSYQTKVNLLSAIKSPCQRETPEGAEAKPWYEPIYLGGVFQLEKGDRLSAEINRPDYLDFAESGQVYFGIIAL

[4] = system: IL-1; details: RA patients; cited from earlier work
[5] = system: GBP-1; test: GBP-1 expression in stimulated human microvascular endothelial cells, microarray; type: cell-based; details: three donors, TNFα 10, IL-1β 10, VEGF 30, bFGF 10 ng/ml, FIG. 93A
Procedure: (§5) Human microvascular endothelial cells from three different donors were obtained from Clonetics (Walkersville, Md.), and cultured in EGM-2 medium (Clonetics). Cells were cultured in 100 mm dishes coated with mouse type IV collagen and allowed to grow to approximately 80% confluency. The cells were then stimulated for 1, 6, or 24 hours with either medium, TNFα (10 ng/ml), or IL-1β (10 ng/ml). At each time point, mRNA was isolated, labeled and used to probe Affymetrix HG_U95Av2 and HG_U95B chips.
(§6) For VEGF and bFGF stimulations, microvascular endothelial cells from three independent donors were obtained, cultured in 100 mm dishes coated with mouse type IV collagen and allowed to grow to 30% confluency. At this time, the media was replaced with DMEM containing 2% fetal calf serum, and the cells were cultured an additional day. The cells were stimulated for 1, 6, or 24 hours with either medium, VEGF (30 ng/ml) or bFGF (10 ng/ml). At each time point, mRNA was isolated, labeled, and used to probe Affymetrix chips as described above.

[6] = system: GBP-5; test: GBP-5 expression in stimulated human microvascular endothelial cells, microarray; type: cell-based; details: for donors whose cells upregulated GBP-5 mRNA: human microvascular endothelial cells from three donors; for induction of GBP-5: human microvascular endothelial cells, three donors, TNFα 10, IL-1β 10 ng/ml, FIG. 93B
Procedure: as §5, §6

[7] = system: GBP-1; test: GBP-1 mRNA in stimulated synovial fibroblasts from rheumatoid arthritis patients, microarray; type: cell-based, human; details: RA synovial fibroblasts; TNFα, IL-1α, IL-17 10 ng/ml, IL-17b-Ig 5 ng/ml; FIG. 94A
Procedure: Synovial fibroblasts were obtained from Cell Applications, Inc. (San Diego, Calif.), and cultured for 1, 6, or 24 hours with either medium, TNFα (10 ng/ml), IL-1α (10 ng/ml, Peprotech), IL-17 (10 ng/ml, R&D Systems, Minneapolis, Minn.), or IL-17b-Ig fusion protein (5 ng/ml). The IL-17b protein was produced by fusing the full length IL-17b sequence (Shi et al., J. Biol. Chem. 275:19167-19176 (2000)) to the human IgG1 Fc region. At each time point, mRNA was isolated, labeled, and used to probe Affymetrix HG_U95Av2, HG_U95B, HG_U95C, HG_U95D, and HG_U95E chips.

[8] = system: GBP-5; test: GBP-5 mRNA in resting and stimulated THP-1 monocytes, microarray; type: cell-based, human; details: IFN-γ 100 U/ml, TNFα 10 ng/ml, LPS 100 ng/ml, FIG. 92B
Procedure: (§7) For the microarray analyses, THP-1 cells (10^7/group) were cultured at 10^6/ml as above for 1, 6, 24, or 48 hours with either medium, TNFα (10 ng/ml), IFN-γ(100 U/ml), or LPS (100 ng/ml). At each time point, mRNA was isolated, labeled, and used to probe Affymetrix HG_U95Av2, HG_U95B, and HG_U95C chips.

[9] = system: mouse GBP-1; test: GBP-1 mRNA in stimulated mouse fibroblasts, real time PCR; type: cell-based; details: 2 or 8 hours, TNFα 10 ng/ml or PMA 10 ng/ml, FIG. 90A
Procedure: as §1, §2, §3, §4

[10] = system: GBP-1; test: GBP-1 mRNA in resting and stimulated THP-1 monocytes, microarray; type: cell-based, human; details: IFN-γ 100 U/ml, TNFα 10 ng/ml, LPS 100 ng/ml, FIG. 92A
Procedure: as §7

[11] = system: GBP-1; test: LPS-induced GBP-1 mRNA in THP-1 monocytes, real time PCR; type: cell-based, human; details: THP-1, LPS 100 ng/ml, 2 hour stimulation
Procedure: (§8) For real time PCR analyses, THP-1 cells (10^7/group) were cultured at 10^6/ml in RPMI containing 10% heat inactivated fetal calf serum, 2 mM L-glutamine with either medium, BMS-205820 (2 uM), or dexamethasone (100 nM) for 30 minutes at 37° C. in 5% CO2. LPS was added to each group (100 ng/ml), and the incubation continued for 0.5-8 hr. At the end of each time point, cells were pelleted, washed one time with 10 ml PBS, and stored at −80° C.
as §2
(§9) Reactions were performed in a total volume of 40 μl. The master mix contained SYBR Green I Dye, 50 mM Tris-HCl pH8.3, 75 mM KCl, DMSO, Rox reference dye, 5 mM MgCl2, 2 mM dNTP, Platinum Taq High Fidelity (1 U/reaction), and 0.5 μM of each primer. Eight microliters of diluted cDNA was used in each PCR reaction. […]
as §4

[12] = system: GBP-5; test: LPS-induced GBP-5 mRNA in THP-1 monocytes, real time PCR; type: cell-based, human; details: THP-1, LPS 100 ng/ml, 2 hour stimulation
Procedure: as §8, §2, §9, §4

[13] = molecular target: T2, IL-15 (Mus musculus, UniProt P48346); details: administration to mice; cited from earlier work
T2 construct: host or cells: mice (collagen-induced arthritis model)
T2 sequence (P48346 49-162): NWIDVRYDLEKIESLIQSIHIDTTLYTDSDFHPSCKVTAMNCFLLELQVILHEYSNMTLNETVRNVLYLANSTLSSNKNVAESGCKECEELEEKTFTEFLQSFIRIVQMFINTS

Molecule: CCCCCCCCCCCCCC(=O)O[C@@H]1[C@@H](C)[C@@]2(O)[C@@H](C=C(CO)C[C@]3(O)C(=O)C(C)=C[C@@H]23)[C@@H]2C(C)(C)[C@]12OC(C)=O [PMA, reference compound]
- steady-state level of GBP-5 mRNA [1]: not

Molecule: C[C@]12C=CC(=O)C=C1CC[C@@H]1[C@@H]2[C@@H](O)C[C@@]2(C)[C@H]1CC[C@]2(O)C(=O)CO [prednisolone]
- Fc gamma RI expression [2]: induced down-regulation

Molecule: Etanercept
- number of swollen joints ([3]; RA patients): significant decrease
- numbers of T cells and plasma cells in the synovium ([3]; RA patients): significant decrease
- expression of VCAM-1 and IL-1 in the synovium ([3]; treated patients): decrease

Molecule: IL-1Ra: natural inhibitor of IL-1, recombinant human IL-1 receptor antagonist
- clinical symptoms and rate of progressive joint damage [4]: significantly reduced

Molecule: IL-1β: cytokine used as stimulus of endothelial cells
- GBP-1 expression [5]: strongly induced
- donors whose cells upregulated GBP-5 mRNA [6]: Only one donor
- induction of GBP-5 [6]: variable

Molecule: IL-17: cytokine used as stimulus of synovial fibroblasts (R&D Systems)
- GBP-1 mRNA induction [7]: not

Molecule: TNFα
- steady state level of GBP-5 mRNA [8]: Much lower levels of expression were induced
- steady-state level of GBP-5 mRNA [1]: induced increased steady-state levels
- steady-state level of GBP-1 mRNA [9]: induced increased steady-state levels
- GBP-1 expression [5]: strongly induced
- donors whose cells upregulated GBP-5 mRNA [6]: two out of three
- induction of GBP-5 [6]: variable
- GBP-1 mRNA induction [7]: induced at 1 and 6 hours
- steady state level of GBP-1 mRNA [10]: Much lower levels of expression were induced

Molecule: VEGF
- GBP-1 expression [5]: No induction

Molecule: basic FGF: growth factor used as stimulus of endothelial cells
- GBP-1 expression [5]: No induction

Molecule: interferon-γ: cytokine used as stimulus of THP-1 monocytes
- steady state level of GBP-5 mRNA [8]: strongly induced
- steady state level of GBP-1 mRNA [10]: strongly induced

Molecule: lipopolysaccharide [LPS, reference compound]
- steady state level of GBP-5 mRNA [8]: Much lower levels of expression were induced
- steady-state mRNA level of GBP-1 [11]: significantly increased
- steady-state mRNA level of GBP-5 [12]: significantly increased
- steady state level of GBP-1 mRNA [10]: Much lower levels of expression were induced

B1: soluble IL-15 receptor alpha chain: soluble IL-15 receptor alpha chain administered to mice (protein, UniProt Q60819 33-205, looked up)
extracellular domain: GTTCPPPVSIEHADIRVKNYSVNSRERYVCNSGFKRKAGTSTLIECVINKNTNVAHWTTPSLKCIRDPSLAHYSPVPTVVTPKVTSQPESPSPSAKEPEAFSPKSDTAMTTETAIMPGSRLTPSQTTSAGTTGTGSHKSSRAPSLAATMTLEPTASTSLRITEISPHSSKMTK
modifications: extracellular domain
notes: soluble IL-15 receptor alpha chain administered to mice
- collagen-induced arthritis [13]: prevented

B2: IL-1a: cytokine used as stimulus of synovial fibroblasts (Peprotech) (protein, UniProt P01583 113-271, looked up)
Interleukin-1 alpha: SAPFSFLSNVKYNFMRIIKYEFILNDALNQSIIRANDQYLTAAALHNLDEAVKFDMGAYKSSKDDAKITVILRISKTQLYVTAQDEDQPVLLKEMPEIPKTITGSETNLLFFWETHGTKNYFTSVAHPNLFIATKQDYWVCLAGGPPSITDFQILENQA
- GBP-1 mRNA induction [7]: induced at 1 and 6 hours

B3: IL-17b: full length IL-17b sequence fused to the human IgG1 Fc region (protein)
chain: QPRSPKSKRKGQGRPGPLAPGPHQVPLDLVSRMKPYARMEEYERNIEEMVAQLRNSSELAQRKCEVNLQLWMSNKRSLSPWGYSINHDPSRIPVDLPEARCLCLGCVNPFTMQEDRSMVSVPVFSQVPVRRRLCPPPPRTGPCRQRAVMETIAVGCTCIF
- GBP-1 mRNA induction [7]: not
